Data on four compounds can be found in patent US8697690B2, “Isoindolone M1 receptor positive allosteric modulators” (Merck Sharp & Dohme Corp., priority 2010, dated 2014).

The experiment deals with T1, acetylcholine muscarinic M1 receptor (Homo sapiens, UniProt P11229).
T1 construct: expressed in transfected cells; host or cells: CHOnfat cells (CHO with NFAT reporter background), Geneticin-selected
T1 sequence (P11229 1-460): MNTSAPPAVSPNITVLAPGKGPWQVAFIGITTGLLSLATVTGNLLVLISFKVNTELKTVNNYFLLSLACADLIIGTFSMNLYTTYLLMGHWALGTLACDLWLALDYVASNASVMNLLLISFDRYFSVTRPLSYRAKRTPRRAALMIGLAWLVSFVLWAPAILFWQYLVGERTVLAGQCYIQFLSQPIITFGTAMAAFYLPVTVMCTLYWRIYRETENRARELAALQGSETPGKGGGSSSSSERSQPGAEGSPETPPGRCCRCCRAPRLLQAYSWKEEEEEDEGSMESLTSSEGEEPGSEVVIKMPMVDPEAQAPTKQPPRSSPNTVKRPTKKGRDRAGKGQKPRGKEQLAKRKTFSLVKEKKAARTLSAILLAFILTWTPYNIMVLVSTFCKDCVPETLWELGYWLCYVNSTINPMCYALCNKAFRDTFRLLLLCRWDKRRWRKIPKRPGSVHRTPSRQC
Put plainly: muscarinic FLIPR assay: intracellular calcium in CHOnfat/hM1 cells, potentiation of EC20 acetylcholine. It counts as cell-based. As to conditions: IP = inflection point calculated from FLIPR values, 4 min preincubation, then EC20 acetylcholine (3 nM final). Here is the method: The assay studies the effect of one or several concentrations of test compounds on basal or acetylcholine-stimulated Ca^2+ levels using FLIPR.
Compounds are prepared and subjected to a preincubation period of 4 min. Thereafter, a single EC20 concentration of acetylcholine is added to each well (3 nM final). The intracellular Ca^2+ level of each sample is measured and compared to an acetylcholine control to determine any modulatory activity.
Cells: CHOnfat/hM1, hM2, hM3 or hM4 cells are plated 24 hr before the assay at a density of 18,000 cells/well (100 μL) in a 384 well plate. CHOnfat/hM1 and CHOnfat/hM3 Growth Medium: 90% DMEM (Hi Glucose); 10% HI FBS; 2 mM L-glutamine; 0.1 mM NEAA; Pen-Strep; and 1 mg/ml Geneticin, are added. For M2Gqi5CHOnfat and M4Gqi5CHOnfat cells, an additional 600 ug/ml hygromycin is added.
Equipment: 384 well plate, 120 μL addition plate; 96-well Whatman 2 ml Uniplate Incubator, 37° C., 5% CO2; Skatron EMBLA-384 Plate Washer; Multimek Pipetting System; Genesis Freedom 200 System; Mosquito System; Temo Nanoliter Pipetting System; and FLIPR^384 Fluorometric Imaging Plate Reader System are used.
Buffers. Assay Buffer: Hanks Balanced Salt Solution, with 20 mM Hepes, 2.5 mM Probenecid (Sigma P-8761) first dissolved in 1 N NaOH, 1% Bovine Serum Albumin (Sigma A-9647). Dye Loading Buffer: Assay Buffer plus 1% Fetal Bovine Serum and Fluo-4AM/Pluronic Acid Mixture. 2 mM Fluo-4AM ester stock in DMSO (Molecular Probes F-14202) Concentration of 2 μM in buffer for a final concentration of 1 μM in Assay. 20% Pluronic Acid Solution stock, with concentration of 0.04% in Buffer, 0.02% in Assay.
65 μL of 2 mM Fluo-4AM are mixed with 130 μL of 20% Pluronic Acid. The resulting solution and 650 μL FBS is added to the assay buffer for a total volume of 65 mL. Positive Controls: 4-Br-A23187: 10 mM in DMSO; final concentration […]. Acetylcholine: 10 mM in water, working stock at both 20 μM and 30 μM in assay buffer, final concentration of 10 μM. This is used to check the maximum stimulation of the CHOK1/hM1 cells. 20 μM (2×) acetylcholine is added in the preincubation part of the assay, and the 30 μM (3×) stock is added in the second part. (EC20)Acetylcholine: 10 mM in water, working stock of 9 nM (3×), and final concentration in assay is 3 nM. This is used after the preincubation with test compounds. Addition of the EC20 Acetylcholine to each well with a test compound will ascertain any modulator activity. 24 wells contain 3 nM Acetylcholine alone as a control.
Determining Activity of Putative Compounds:
Screening Plate Compounds are titrated in 96-well plates (columns 2-11), 100% DMSO, started at a concentration of 15 mM (150× stock concentration), and 3-fold serial dilutions using Genesis Freedom200 System. Four 96-well plates are combined into a 384-well plate using Mosquito Nanoliter Pipetting System by transferring 1 μl of serial diluted compounds to each well, and 1 mM acetylcholine (100× stock concentration) were added as a control. Using Temo, 49 μl assay buffer is added to each well of the 384-well plate right before assay.
In a 96-well Whatman 2 ml Uniplate, 9 nM Acetylcholine (3×) is pipetted into wells corresponding to the screening compounds, and into control wells. The 30 μM acetylcholine control (3×) is added into control wells, and the 3× agonist plate is transferred into a 384 well plate.
Cells are washed three times with 100 μL of buffer, leaving 30 μL of buffer in each well. Using Multimek, 30 μL of Dye Loading Buffer is added into each well and incubated at 37° C., 5% CO2 for up to one hr.
After 60 min, the cells are washed three times with 100 μL of buffer, leaving 30 μL of buffer in each well. The cell plate, screening plate, and agonist addition plates are placed on the platform in the FLIPR and the door closed. A signal test to check background fluorescence and basal fluorescence signal is performed. Laser intensity is adjusted if necessary. […]

As to `O=C1c2cc(Cc3ccc(C4CC4)nc3)c3cccnc3c2CN1[C@H]1CCCC[C@@H]1O` [Example 25, 5-[(6-Cyclopropylpyridin-3-yl)methyl]-8-[(1S,2S)-2-hydroxycyclohexyl-8,9-dihydro-7H-pyrrolo 3,4-h]quinolin-7-one], the EC50 was 10.5 nM.

As for `O=C1c2cc(Cc3cccnc3)c3ccccc3c2CN1[C@H]1CCCC[C@@H]1O` [Example 6, 2-[(1S,2S)-2-Hydroxycyclohexyl]-5-(pyridin-3-ylmethyl)-1,2-dihydro-3H-benzo[e]isoindol-3-one], the 50% effective concentration (EC50) is 11 nM.

Take `O=C1c2cc(Cc3ccc(N4CCOCC4)nc3)c3ccccc3c2CN1[C@H]1CCCC[C@@H]1O` [Example 7, 2-[(1S,2S)-2-Hydroxycyclohexyl]-5-[(6-morpholin-4-ylpyridin-3-yl)methyl]-1,2-dihydro-3H-benzo[e]isoindol-3-one]: the EC50 was 14 nM.

`O=C1c2cc(Cc3ccc(Cl)nc3)c3cccnc3c2C(CCO)N1[C@H]1CCCC[C@@H]1O` (stereo partly drawn) [Example 24, 5-[(6-Chloropyridin-3-yl)methyl]-8-[(1S,2S)-2-hydroxycyclohexyl]-9-(2-hydroxyethyl)-8,9-dihydro-7H-pyrrolo[3,4-h]quinolin-7-one]: the EC50 was 7.4 nM.

One may read the EC50 as the midpoint of the concentration-response curve.
